Laboratory results: ChEMBL document CHEMBL5223079, “Progress toward B-Cell Lymphoma 6 BTB Domain Inhibitors for the Treatment of Diffuse Large B-Cell Lymphoma and Beyond” (J Med Chem, 2021)
In brackets after ≈: the same amount, converted by molar mass.

Assays:
[1] = Aqueous solubility of the compound; type: physicochemical; details: buffer
[2] = Plasma clearance in Balb/C mouse at 1 mg/kg, po or 5 mg/kg, iv; type: ADME, organism-based; details: in vivo
SUD4 [3] = test: Antitumor activity against human SU-DHL-4 cells xenografted in mouse assessed as reduction in tumor weight at 5 mg/kg, iv treated every other day for 3 days; type: functional; set-up: scale not given: the % may be the effect or the level left; details: time 3 day
SUD4 [4] = test: Antitumor activity against human SU-DHL-4 cells xenografted in mouse assessed as reduction in tumor volume at 5 mg/kg, iv treated every other day for 3 days; type: functional; set-up: scale not given: the % may be the effect or the level left; details: time 3 day
SUD4 [5] = test: Antitumor activity against CD69 human SU-DHL-4 cells xenografted in mouse assessed as increase in mRNA expression at 5 mg/kg, administered daily for 3days by RT-PCR analysis; type: functional
SUD4 [6] = test: Antitumor activity against CXCR4 human SU-DHL-4 cells xenografted in mouse assessed as increase in mRNA expression at 5 mg/kg, administered daily for 3days by RT-PCR analysis; type: functional
SUD4 [7] = test: Antitumor activity against ATR human SU-DHL-4 cells xenografted in mouse assessed as increased in mRNA expression at 5 mg/kg, administered daily for 3days by RT-PCR analysis; type: functional
[8] = Intrinsic clearance in mouse microsomes; type: ADME, Microsome
[9] = Intrinsic clearance in mouse liver; type: ADME, tissue-based; details: read-out: CLH
[10] = Metabolic stability in human liver microsome assessed as half life; type: ADME; details: liver microsomes
SUD4 [11] = test: cells; details: Homo sapiens, SU-DHL-4
Description: Antiproliferative activity against BCL-6 dependent human SU-DHL-4 cells by CCK-8 assay

Farage = test: cells; details: Homo sapiens
Description: Antiproliferative activity against BCL-6 dependent human Farage cells by CCK-8 assay

DOHH-2 = test: cells; details: Homo sapiens
Description: Antiproliferative activity against BCL-6 dependent human DOHH-2 cells by CCK-8 assay

OCI-Ly7 = test: cells; details: Homo sapiens
Description: Antiproliferative activity against BCL-6 dependent human OCILY7 cells by CCK-8 assay

Toledo = test: cells; details: Homo sapiens
Description: Antiproliferative activity against BCL-6 independent human Toledo cells by CCK-8 assay

SUD4 [12] = test: Decrease in number of living cells in human SUDHL4 cells at 0.625 uM incubated for 48 hrs by flow cytometry (reference value: 48%); set-up: scale not given: the % may be the effect or the level left
SUD4 [13] = test: Decrease in number of living cells in human SUDHL4 cells at […] incubated for 48 hrs by EdU flow cytometry assay (reference value: 48%); set-up: scale not given: the % may be the effect or the level left; details: dose 2.5 µM
SUD4 [14] = test: Decrease in number of living cells in human SUDHL4 cells at 1.25 uM incubated for 48 hrs by EdU flow cytometry assay (reference value: 48%); set-up: scale not given: the % may be the effect or the level left
[15] = target: B-cell lymphoma 6 protein (Homo sapiens, UniProt P41182); test: Inhibition of human BCL6 […] domain
[16] = Oral bioavailability in SCID mouse plasma at 10 mg/kg; type: ADME, organism-based; set-up: dose 10 mg/kg, route po
[17] = Oral bioavailability in SCID mouse plasma at 100 mg/kg; type: ADME, organism-based
BCL-6/NCOR2 = BCL-6/NCOR2 (Homo sapiens, UniProt P41182); test: Inhibition of BCL6/SMRT protein protein interaction (unknown origin) by TR-FRET assay

N#Cc1c(NCc2ccccc2)ccnc1Cl
solubility [1]: 60 µM (≈ 14.6 µg/mL)

C[C@@H]1CN(c2ncc(Cl)c(Nc3ccc4c(c3)n(CCC(C)(C)O)c(=O)n4C)n2)C[C@H](C)C1(F)F
clearance [2]: 20 mL/min/kg

N#Cc1c(NCC2CC2)ccnc1Cl
solubility [1]: 300 µM (≈ 62.3 µg/mL)

Cn1c(=O)n(C)c2cc(Nc3ncccc3C#N)ccc21
solubility [1]: 300 µM (≈ 83.8 µg/mL)

COc1cc(Nc2nc(N3C[C@@H](C)N[C@@H](C)C3)ncc2F)ccc1NC(=O)c1ccc(C2=CCCC2)s1
Activity (SUD4 [3]): 70% | Activity (SUD4 [4]): 60% | Activity (SUD4 [5]): >150% | Activity (SUD4 [6]): >60% | Activity (SUD4 [7]): >200% | microsomal CLint [8]: < 9.6 µL/min/mg | CLint scaled [9]: < 38 mL/min/kg | half-life [10]: > 1 h | IC50 (SUD4 [11]): 1000 nM | IC50 (Farage): 1000 nM | IC50 (DOHH-2): 1000 nM | IC50 (OCI-Ly7): 1000 nM | IC50 (Toledo): 3300 nM | Activity (SUD4 [12]): 27% | Activity (SUD4 [13]): 6.6% | Activity (SUD4 [14]): 13%

Cn1c(=O)n(C)c2cc(Nc3cc(SCc4ccccc4)ncn3)ccc21
solubility [1]: < 30 µM

CNC(=O)COc1cc2cc(Nc3nc(N4C[C@H](C)C[C@H](C)C4)ncc3Cl)ccc2n(C)c1=O
IC50 [15]: ≤ 3 nM | AUC [16]: 1.86 µM·h | Cmax [16]: 193 nM | Cmax [17]: 599 nM

CNC(=O)COc1cc2cc(Nc3nc(N4CCC(C(=O)N(C)C)CC4)ncc3Cl)cc(OC)c2n(C)c1=O
IC50 [15]: ≤ 3 nM

COc1ccc(Nc2nc(NCC(C)C)ncc2F)cc1Cl
IC50 (BCL-6/NCOR2): 19000 nM
